In patent publication US8697869B2, “3-(heteroaryl-amino)-1,2,3,4-tetrahydro-9H-carbazole derivatives and their use as prostaglandin D2 receptor modulators” (Actelion Pharmaceuticals Ltd., priority 2010, dated 2014) one finds IC50 data, which are given here for eleven compounds.

In experiment [1] the target is T1, hCRTH2 receptor (Homo sapiens (Human), UniProt Q9Y5Y4). Description: hCRTH2 receptor membranes radioligand displacement assay (3H-PGD2). Conditions: 3H-PGD2 2.5 nM, HEK293-hCRTH2 membranes, Binding-Buffer with 0.1% BSA. Here is the method:
Biological Assays: Preparation of hCRTH2 Receptor Membranes and Radioligand Displacement Assay:
(§1) First, recombinant HEK293-hCRTH2 cells were detached from culture plates into 5 ml buffer A/plate (Buffer A: 5 mM Tris, 1 mM MgCl2-6H2O pH=7.4) using a rubber policeman. Cells were then transferred into centrifugation tubes and centrifuged for 5 min at 400 g. The cell pellet was resuspended in the same buffer and tubes were frozen at −80° C. Cells were thawed and membrane fragments were generated by homogenization using a polytron homogenizer (30 seconds). The membrane fragments were then centrifuged at 3000 g for 20 minutes and resuspended in buffer C (Buffer C: 75 mM Tris, 25 mM MgCl2, 250 mM Saccharose pH 7.4). Aliquots of membrane fragements were stored at −20° C.
(§2) Binding assay was performed in a final assay volume of 250 μl. First, 25 μl of test compound, previously diluted in Binding-Buffer (Binding-Buffer: 50 mM Tris-Base, 100 mM NaCl, 1 mM EDTA, 0.1% BSA (protease free), 0.01% NaN3, 10 mM MnCl2 pH 7.0) was placed into each well. After addition of 75 μl Binding-Buffer, 50 μl of the radioligand ^3H-PGD2 (at 2.5 nM (220.000 dpm/well) from ANAWA ART0662) was added to each well. Binding assay was started by addition of 100 μl CRTH2 membrane fragments, reaching a final concentration of 20 μg/well. For non-specific binding, PGD2 was added to the reaction mixture to […] final concentration. This assay mix was incubated for 90 minutes at room temperature and then filtered through a GF/C filter 96-well plate which was pre-soaked for 3 hours in 0.5% polyethyleneimine (PEI). The filter-wells were washed three times with ice cold Binding-Buffer. Then, 40 μl of Microscint-40 (Packard) was added to each well and the retained radioactivity quantified in a Topcount (Packard).

Experiment [2] has as its target T1, hCRTH2 receptor. Description: Radioligand displacement assay in presence of human serum albumin (HSA). Conditions: 3H-PGD2 2.5 nM, Binding-Buffer with 0.5% HSA instead of 0.1% BSA. How it is done:
as §1, §2
Radioligand Displacement Assay-Human Serum Albumin (HSA):
Radioligand displacement assay in presence of human serum albumin (HSA) was performed as described above, with following modifications. Binding-Buffer-HSA: Binding-buffer+0.5% Sigma Albumin from Human serum A1887 (instead of 0.1% BSA). A volume of 25 μl test compound, previously diluted in Binding-Buffer-HSA was placed into each well. After addition of 75 μl Binding-Buffer-HSA, 50 μl of ^3H-PGD2 (at 2.5 nM (220.000 dpm/well) from ANAWA ART0662) was added to each well. Remaining protocol was identical as described above.

Another experiment has as its system eosinophils. Description: Eosinophil shape change assay with human plasma. The experiment is classed as cell-based. Conditions: human polymorphonuclear cells, 50% human plasma, activated with 100 nM PGD2. Here is the method:
After obtaining informed consent, blood samples were drawn by venipuncture according to the protocol approved by the ethics committee of Basel, Switzerland. Polymorphonuclear leukocytes (containing eosinophils, basophils and neutrophils) were isolated using the Polymorphprep™ method (Axis-Shield). In brief, anticoagulated whole blood was layered onto a Polymorphprep gradient (density 1.113 g/ml) and centrifuged at 500 g for 30 min. The polymorphonuclear cell fraction was harvested and depleted for erythrocytes by hypotonic saline lysis.
The polymorphonuclear cells were resuspended in assay buffer (1×PBS with Ca^2+/Mg^2+ supplemented with 0.1% BSA, 10 mM HEPES, and 10 mM Glucose, pH 7.4) at 5×10^6 cells/ml and stained with anti-CD49d-APC ((APC=Allophycocyanin) for 1 hour at RT. Test compounds, at various concentrations, were preincubated 10 min in human plasma (anticoagulated with a thrombin inhibitor). Then, human plasma was added to the polymorphonuclear cells to 50% of final assay volume with polymorphonuclear cells at 4×10^6 cells/rd. After incubation for 10 minutes at 37° C., the polymorphonuclear cells were activated for 5 min at 37° C. by addition of PGD2 at 100 nM final concentration. Activation was stopped by addition of 0.5 ml paraformaldehyde (1%).
Immediately after fixation with paraformaldehyde, the samples were analyzed by FACSCanto flow cytometer (BD Biosciences) and target cells were identified by their forward-scatter (FSC) and side-scatter (SSC) characteristics. Eosinophils were identified by the anti-CD49d-APC signal and their characteristic side-scatter (SSC) profile. Shape change responses, indicative of eosinophil activation, were quantified as the percent of cells with an increased forward-scatter.

T1 sequence (Q9Y5Y4 whole entry): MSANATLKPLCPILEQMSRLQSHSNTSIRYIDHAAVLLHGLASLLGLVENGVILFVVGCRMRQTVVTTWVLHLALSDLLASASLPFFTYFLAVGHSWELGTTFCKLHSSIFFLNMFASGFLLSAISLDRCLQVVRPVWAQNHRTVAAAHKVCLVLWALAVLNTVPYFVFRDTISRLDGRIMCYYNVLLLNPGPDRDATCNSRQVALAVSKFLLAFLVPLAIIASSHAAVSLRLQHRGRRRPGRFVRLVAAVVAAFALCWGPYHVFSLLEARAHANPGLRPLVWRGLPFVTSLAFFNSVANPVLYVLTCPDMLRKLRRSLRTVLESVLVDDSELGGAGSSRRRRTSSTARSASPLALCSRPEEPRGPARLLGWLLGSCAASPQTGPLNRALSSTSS

`O=C(O)Cn1c2c(c3cc(F)ccc31)C[C@@H](Nc1ncc(F)cn1)CC2` [Example 1, (3S)-2-(6-fluoro-3-((5-fluoropyrimidin-2-yl)amino)-3,4-dihydro-1H-carbazol-9-(2H)-yl)acetic acid]: the IC50 on hCRTH2 receptor [1] was 16 nM; at hCRTH2 receptor [2], 20 nM; in the experiment on eosinophils it was 21 nM.
In the same order, the values of `O=C(O)Cn1c2c(c3cc(F)ccc31)C[C@@H](Nc1ncc(Cl)cn1)CC2` [Example 3, (3S)-2-(6-fluoro-3-((5-chloropyrimidin-2-yl)amino)-3,4-dihydro-1H-carbazol-9-(2H)-yl)acetic acid] are 4.6 nM, 23 nM and 41 nM.
Regarding `O=C(O)Cn1c2c(c3cc(F)ccc31)C[C@H](Nc1ncc(Cl)cn1)CC2` [Example 4, (3R)-2-(6-fluoro-3-((5-chloropyrimidin-2-yl)amino)-3,4-dihydro-1H-carbazol-9-(2H)-yl)acetic acid], the values for the IC50 at hCRTH2 receptor [1], at hCRTH2 receptor [2] and with eosinophils were 13 nM, 27 nM and 722 nM, respectively.
`CN(c1ncc(F)cn1)[C@H]1CCc2c(c3cc(F)ccc3n2CC(=O)O)C1` [Example 7, (3S)-2-(6-fluoro-3-((5-fluoropyrimidin-2-yl)(methyl)amino)-3,4-dihydro-1H-carbazol-9(2H)-yl)acetic acid]: the IC50 is 2.5 nM at hCRTH2 receptor [1], 7 nM on hCRTH2 receptor [2] and 8 nM in the experiment on eosinophils (Eosinophil).
`CN(c1ncc(Cl)cn1)[C@H]1CCc2c(c3cc(F)ccc3n2CC(=O)O)C1` [Example 9, (3S)-2-(3-((5-chloropyrimidin-2-yl)(methyl)amino)-6-fluoro-3,4-dihydro-1H-carbazol-9(2H)-yl)acetic acid]: the IC50 at hCRTH2 receptor [1] is 2.7 nM; on hCRTH2 receptor [2], 11 nM; with eosinophils (Eosinophil), 15 nM.
For `CN(c1ncc(C(F)(F)F)cn1)[C@H]1CCc2c(c3cc(F)ccc3n2CC(=O)O)C1` [Example 11, (3S)-2-(6-fluoro-3-(methyl(5-(trifluoromethyl)pyrimidin-2-yl)amino)-3,4-dihydro-1H-carbazol-9(2H)-yl)acetic acid], the IC50 was 2 nM on hCRTH2 receptor [1], 15 nM at hCRTH2 receptor [2] and 49 nM with eosinophils (Eosinophil).
The corresponding values for `CN(c1ncccn1)[C@H]1CCc2c(c3cc(F)ccc3n2CC(=O)O)C1` [Example 15, (3S)-2-(6-fluoro-3-(methyl(pyrimidin-2-yl)amino)-3,4-dihydro-1H-carbazol-9(2H)-yl)acetic acid] are 9.9 nM, 35 nM and 66 nM.
In the same order, the values of `CN(c1nc2cc(Cl)ccc2o1)[C@H]1CCc2c(c3cc(F)ccc3n2CC(=O)O)C1` [Example 18, (3S)-2-(3-((5-chlorobenzo[d]oxazol-2-yl)(methyl)amino)-6-fluoro-3,4-dihydro-1H-carbazol-9(2H)-yl)acetic acid] are 1.4 nM, 28 nM and 6 nM.
Take `CN(c1nc2ccccc2o1)[C@H]1CCc2c(c3cc(F)ccc3n2CC(=O)O)C1` [Example 19, (3S)-2-(3-(benzo[d]oxazol-2-yl(methyl)amino)-6-fluoro-3,4-dihydro-1H-carbazol-9(2H)-yl)acetic acid]: the results for the IC50 on hCRTH2 receptor [1], on hCRTH2 receptor [2] and in the experiment on eosinophils (Eosinophil) were 7.3 nM, 17 nM and 31 nM, respectively.
Consider `CCN(c1ncc(Cl)cn1)[C@H]1CCc2c(c3cc(F)ccc3n2CC(=O)O)C1` [Example 24, (3S)-2-(3-((5-chloropyrimidin-2-yl)(ethyl)amino)-6-fluoro-3,4-dihydro-1H-carbazol-9(2H)-yl)acetic acid], for which the IC50 on hCRTH2 receptor [1] was found to be 1.7 nM; at hCRTH2 receptor [2], 19 nM; in the experiment on eosinophils (Eosinophil), 37 nM.
The corresponding values for `CCCN(c1ncc(Cl)cn1)[C@H]1CCc2c(c3cc(F)ccc3n2CC(=O)O)C1` [Example 25, (3S)-2-(3-((5-chloropyrimidin-2-yl)(propyl)amino)-6-fluoro-3,4-dihydro-1H-carbazol-9(2H)-yl)acetic acid] are 3.9 nM, 17 nM and 13 nM.
